According to US10947542B2, “Nucleic acid simultaneously inhibiting expression of AR gene and mTOR gene” (CURIGIN CO., LTD., priority 2017, dated 2021):

How the values were obtained:
DU145 cell line = experiment: Cancer cell death by double target siRNA and anticancer agent, MTT cell viability; assay type: cell-based
Description: (§1) After incubating the DU145 cell line and the H460 cell line in 6-well plates respectively, we transfected the double target siRNA set 1 (si-AT1) according to the present disclosure thereto. Then, as 48 hours lapsed, the cells were treated with cisplatin 50 uM, etoposide 20 uM or Taxol 1 uM and were incubated for 16 hours. Thereafter, the cells were treated with 5 mg/mL MTT (Promega, Ltd.) and incubated for 4 hours, and then the medium was removed. The cells were treated with 150 μl of solubilization solution and stop solution and then were incubated at 37° C. for 4 hours. Absorbance of the reaction solution was measured at 570 nm and cell viability was calculated using the following equation. Cell viability=(Absorbance of experiment group at 570 nm/Absorbance of control at […])×100(%) [Equation 1]

AR gene = AR gene expression inhibition by siRNA transfection, RT-PCR/qPCR of mRNA (PC3 and h460 cell lines); assay type: cell-based, human; conditions: 80 pmole siRNA per well, 48 hours after transfection, normalized to GAPDH
Description: (§2) We dispensed PC3 and h460 cell lines into 12-well plates, and incubated the same at 37° C. and 5% CO2 condition in RPMI medium (Hyclone company) with 10% FBS (Hyclone company) until a cell confluent reaches 50%. Thereafter, 3 μl of lipofectamine 3000 (Invitrogen, Carlsbad, Calif., USA) was used to transfect the double target siRNA set 1 prepared in the Example 1 (si-AT 1) to the wells in which the cells were cultured at 80 pmole per well. Thus, AR and mTOR were knocked down simultaneously. In addition, siRNA to AR and siRNA to mTOR were transfected respectively, as listed in the following table 3, as a positive control. At 48 hours after the transfection, cells were crushed, and total RNA was extracted using GeneJET RNA Purification Kit (Invitrogen). While using the extracted total RNA as a template, the same was subjected to reverse transcription into cDNA via RT-PCR reaction. Then, mRNA expression levels of AR and mTOR by each siRNA and by the double target siRNA set 1 (si-AT1) according to the present disclosure was identified via q-PCR reaction. To identify the mRNA expression levels, the mRNA of AR and mTOR in the cell lysates knocked down by PCR conditions of Table 6 was converted to cDNA using the primer set from Table 4 and the reaction mixture from Table 5. […]

mTOR gene = mTOR gene expression inhibition by siRNA transfection, RT-PCR/qPCR of mRNA (PC3 and h460 cell lines); assay type: cell-based, human; conditions: 80 pmole siRNA per well, 48 hours after transfection, normalized to GAPDH
Description: as §2

H460 cell line = experiment: Cancer cell death by double target siRNA and anticancer agent, MTT cell viability; assay type: cell-based
Description: as §1

[1] = anticancer agent without double target siRNA, cisplatin 50 uM, etoposide 20 uM or Taxol 1 uM, 16 hours
[2] = siRNA transfected, after 48 hours Taxol 1 uM for 16 hours
[3] = siRNA transfected, after 48 hours etoposide 20 uM for 16 hours

In the case of `N.N.[Cl][Pt][Cl]` [cisplatin, reference compound], the “cancer cell death (cell viability, MTT)” value (DU145 cell line; [1]) is reported as “apoptosis effect was not achieved”.
In the case of `CC(=O)O[C@H]1C(=O)[C@@]2(C)[C@H]([C@H](OC(=O)c3ccccc3)[C@]3(O)C[C@H](OC(=O)[C@H](O)[C@@H](NC(=O)c4ccccc4)c4ccccc4)C(C)=C1C3(C)C)[C@]1(OC(C)=O)CO[C@@H]1C[C@@H]2O` [taxol, reference compound], the “cancer cell death (cell viability, MTT)” value (DU145 cell line; [1]) is reported as “a little anticancer activity”.
With `COc1cc([C@@H]2c3cc4c(cc3[C@@H](O[C@@H]3O[C@@H]5CO[C@@H](C)O[C@H]5[C@H](O)[C@H]3O)[C@H]3COC(=O)[C@H]23)OCO4)cc(OC)c1O` [etoposide, reference compound] the “cancer cell death (cell viability, MTT)” value (DU145 cell line; [1]) was “a little anticancer activity”.
“si-AT1: AR and mTOR double target double strand siRNA, 20mer, SEQ ID NOs: 1 and 2 (chain 1 GCUGCUGCUGCUGCCUGGGG; chain 2 CCCCAUGCAGCUGCAGCAGC; listed as RNA, chemistry not given here)” was tested, and the “mRNA expression level of AR” value (AR gene; PC3 cells) was “reduced”, the “mRNA expression level of AR” value (AR gene; h460 cell line) was “reduced” and the “mRNA expression level of mTOR” value (mTOR gene; PC3 cells) was “reduced”. For the same compound, the “mRNA expression level of mTOR” value (mTOR gene; h460 cell line) was “reduced”, the “cancer cell death (cell viability, MTT)” value (DU145 cell line; siRNA alone ("no treat", no anticancer agent)) was “caused apoptosis” and the “cancer cell death (cell viability, MTT)” value (DU145 cell line; [2]) was “significant improvement in the DU145 cell death”. The “cancer cell death (cell viability, MTT)” value (DU145 cell line; siRNA transfected, after 48 hours cisplatin 50 uM for 16 hours) was “induced the apoptosis”, the “cancer cell death (cell viability, MTT)” value (DU145 cell line; [3]) was “significant improvement in the DU145 cell death” and the “cancer cell death (cell viability, MTT)” value (H460 cell line; siRNA alone) was “showed apoptosis effect”. The “cancer cell death (cell viability, MTT)” value (H460 cell line; [2]) was “significant anticancer activity” and the “cancer cell death (cell viability, MTT)” value (H460 cell line; [3]) was “significant anticancer activity”.
